Consider three compounds from ChEMBL document CHEMBL5725871, “Indanylaminopyridylcyclopropanecarboxylic acids, pharmaceutical compositions and uses thereof” (2018).

Each structure is given as a SMILES string.

The target in one series is T1, Cytochrome P450 2C8 (Homo sapiens, UniProt P10632).
T1 sequence (P10632 whole entry): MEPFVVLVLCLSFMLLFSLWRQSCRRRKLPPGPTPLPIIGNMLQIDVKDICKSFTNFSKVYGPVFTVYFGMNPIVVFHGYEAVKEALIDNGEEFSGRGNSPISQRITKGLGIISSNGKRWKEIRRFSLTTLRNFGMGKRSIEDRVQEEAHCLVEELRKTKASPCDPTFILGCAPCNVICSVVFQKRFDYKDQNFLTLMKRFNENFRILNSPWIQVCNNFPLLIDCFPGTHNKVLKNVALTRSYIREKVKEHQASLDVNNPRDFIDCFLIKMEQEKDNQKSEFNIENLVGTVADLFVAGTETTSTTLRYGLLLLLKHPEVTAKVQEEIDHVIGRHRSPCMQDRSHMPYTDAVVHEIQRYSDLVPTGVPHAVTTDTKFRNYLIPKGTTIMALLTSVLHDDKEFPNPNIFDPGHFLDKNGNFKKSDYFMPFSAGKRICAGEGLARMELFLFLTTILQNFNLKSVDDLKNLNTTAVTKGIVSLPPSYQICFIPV
The experiment in a line: (§1) All assays are carried out on a robotic system in 96 well plates. The final incubation volume contains TRIS buffer (0.1 M), MgCl2 (5 mM), human liver microsomes (0.05 mg/mL), amodiaquine (1 μM) and the test compound at five different concentrations or no compound (high control) in duplicate (e.g. highest concentration 10-50 μM with subsequent serial 1:4 dilutions). Following a short preincubation period, reactions are started with the cofactor (NADPH, 1 mM) and stopped by cooling the incubation down to 8° C. and subsequently by addition of one volume of acetonitrile. An internal standard solution¿the stable isotope d5-desethylamodiaquine is added after quenching of incubations. Peak area analyte (=metabolite formed) and internal standard is determined by LC-MS/MS. The resulting peak area ratio analyte to internal standard in these incubations is compared to a control activity containing no test compound. Within each of the assay runs, the IC50 of a positive control inhibitor (Montelukast) is determined. A general note: Microsomes from liver hold many membrane-bound enzymes, among them those of drug oxidation.

In another series the target is Cytochrome P450 2C9 (Homo sapiens, UniProt P11712). The description is as §1, with “(0.1” for “(0.05”, “diclofenac (10” for “amodiaquine (1”, “(e.g.,” for “(e.g.”, “solution the” for “solution¿the”, “13C6-hydroxydiclofenac” for “d5-desethylamodiaquine”, “(sulfaphenazole)” for “(Montelukast)”.
Sequence of Cytochrome P450 2C9 (P11712 whole entry): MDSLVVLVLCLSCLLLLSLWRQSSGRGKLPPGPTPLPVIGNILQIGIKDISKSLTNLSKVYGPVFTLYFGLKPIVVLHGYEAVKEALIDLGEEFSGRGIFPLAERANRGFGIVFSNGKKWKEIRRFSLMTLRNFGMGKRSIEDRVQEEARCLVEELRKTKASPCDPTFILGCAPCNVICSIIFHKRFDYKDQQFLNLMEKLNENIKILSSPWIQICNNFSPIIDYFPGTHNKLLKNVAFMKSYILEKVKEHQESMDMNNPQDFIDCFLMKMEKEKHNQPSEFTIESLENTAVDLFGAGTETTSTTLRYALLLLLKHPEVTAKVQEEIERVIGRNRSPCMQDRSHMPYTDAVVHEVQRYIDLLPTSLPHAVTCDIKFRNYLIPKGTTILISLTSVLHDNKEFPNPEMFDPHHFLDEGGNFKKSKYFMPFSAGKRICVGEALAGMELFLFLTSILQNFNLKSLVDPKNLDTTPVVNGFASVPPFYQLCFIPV

Turning to `Cc1cc(C(=O)NCC(C)(C)O)cc(C)c1-c1ccc(F)c2c1CC[C@H]2Nc1ccc([C@H]2C[C@@H]2C(=O)O)nc1`, the IC50 (usually the concentration that inhibits the measured activity by half) worked out at 10 µM on Cytochrome P450 2C8 and 31 µM at Cytochrome P450 2C9.
The like results for `Cc1cccc(C)c1-c1ccc(F)c2c1CC[C@H]2Nc1ccc([C@H]2C[C@@H]2C(=O)O)nc1` were, in that order, 5 µM and 7 µM.
The like results for `Cc1c(C#N)cccc1-c1ccc(F)c2c1CC[C@H]2Nc1ccc([C@H]2C[C@@H]2C(=O)O)nc1` were, in that order, 9 µM and 10 µM.
